{"source": "ChEMBL document CHEMBL1201862", "about": "“PubChem BioAssay data set” (2004)", "experiment_in_all_cases": "NCI tumour cell line growth inhibition, 48 h", "key": {"A498": {"system": "A498"}, "A549": {"system": "A549"}, "CCRF-CEM": {"system": "CCRF-CEM"}, "COLO 205": {"system": "COLO 205"}, "DLD-1": {"system": "DLD-1"}, "DMS-114": {"system": "DMS-114"}, "DMS-273": {"system": "DMS-273"}, "EKVX": {"system": "EKVX"}, "HCC 2998": {"system": "HCC 2998"}, "HCT-116": {"system": "HCT-116"}, "HCT-15": {"system": "HCT-15"}, "HL-60": {"system": "HL-60"}, "HOP-18": {"system": "HOP-18"}, "HOP-62": {"system": "HOP-62"}, "HOP-92": {"system": "HOP-92"}, "HT-29": {"system": "HT-29"}, "IGROV-1": {"system": "IGROV-1"}, "K562": {"system": "K562"}, "KM-20L2": {"system": "KM-20L2"}, "KM12": {"system": "KM12"}, "LOX IMVI": {"system": "LOX IMVI"}, "M19-MEL": {"system": "M19-MEL"}, "MCF7": {"system": "MCF7"}, "MOLT-4": {"system": "MOLT-4"}, "Malme-3M": {"system": "Malme-3M"}, "NCI-H226": {"system": "NCI-H226"}, "NCI-H23": {"system": "NCI-H23"}, "NCI-H460": {"system": "NCI-H460"}, "NCI-H522": {"system": "NCI-H522"}, "NCI/ADR-RES": {"system": "NCI/ADR-RES"}, "OVCAR-3": {"system": "OVCAR-3"}, "OVCAR-4": {"system": "OVCAR-4"}, "OVCAR-5": {"system": "OVCAR-5"}, "OVCAR-8": {"system": "OVCAR-8"}, "RXF 393": {"system": "RXF 393"}, "SF-268": {"system": "SF-268"}, "SF-295": {"system": "SF-295"}, "SF-539": {"system": "SF-539"}, "SK-MEL-28": {"system": "SK-MEL-28"}, "SK-MEL-2": {"system": "SK-MEL-2"}, "SK-MEL-5": {"system": "SK-MEL-5"}, "SK-OV-3": {"system": "SK-OV-3"}, "SN12C": {"system": "SN12C"}, "SNB-19": {"system": "SNB-19"}, "SNB-75": {"system": "SNB-75"}, "SW-620": {"system": "SW-620"}, "U-251": {"system": "U-251"}, "UACC-257": {"system": "UACC-257"}, "UACC-62": {"system": "UACC-62"}, "UO-31": {"system": "UO-31"}, "XF498": {"system": "XF498"}}, "note": "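Briefly, cells in 96-well plates were exposed to five compound concentrations for 48 h, and endpoints were estimated by linear interpolation. GI50 = concentration required for 50% inhibition of growth.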 Active and inactive are the calls of the source. No stated cut-off is given here; in the data, active = GI50 up to about 1.1 µM and inactive = higher.", "data": [{"smiles": "COc1cc(/N=N\\c2cccc(S(=O)(=O)O)c2)c(C)cc1/N=N\\c1ccc(/C=C/c2ccc(/N=[N+](/[O-])c3ccc(/C=C/c4ccc(/N=N\\c5cc(C)c(/N=N/c6cccc(S(=O)(=O)O)c6)cc5OC)cc4)c(S(=O)(=O)O)c3)cc2S(=O)(=O)O)cc1", "values": [{"measurement": "GI50", "setting": "A498", "value": "> 100 µM (inactive)"}, {"measurement": "GI50", "setting": "A549", "value": "> 100 µM (inactive)"}, {"measurement": "GI50", "setting": "CCRF-CEM", "value": "> 100 µM (inactive)"}, {"measurement": "GI50", "setting": "COLO 205", "value": "> 100 µM (inactive)"}, {"measurement": "GI50", "setting": "DLD-1", "value": "> 100 µM (inactive)"}, {"measurement": "GI50", "setting": "DMS-114", "value": "> 100 µM (inactive)"}, {"measurement": "GI50", "setting": "DMS-273", "value": "> 100 µM (inactive)"}, {"measurement": "GI50", "setting": "EKVX", "value": "> 100 µM (inactive)"}, {"measurement": "GI50", "setting": "HCC 2998", "value": "> 100 µM (inactive)"}, {"measurement": "GI50", "setting": "HCT-116", "value": "> 100 µM (inactive)"}, {"measurement": "GI50", "setting": "HCT-15", "value": "> 100", "unit": "µM"}, {"measurement": "GI50", "setting": "HL-60", "value": "> 100 µM (inactive)"}, {"measurement": "GI50", "setting": "HOP-18", "value": "> 100 µM (inactive)"}, {"measurement": "GI50", "setting": "HOP-62", "value": "> 100 µM (inactive)"}, {"measurement": "GI50", "setting": "HOP-92", "value": "> 77.3 µM (inactive)"}, {"measurement": "GI50", "setting": "HT-29", "value": "> 100 µM (inactive)"}, {"measurement": "GI50", "setting": "IGROV-1", "value": "> 100 µM (inactive)"}, {"measurement": "GI50", "setting": "K562", "value": "> 100 µM (inactive)"}, {"measurement": "GI50", "setting": "KM-20L2", "value": "> 100 µM (inactive)"}, {"measurement": "GI50", "setting": "KM12", "value": "> 100 µM (inactive)"}, {"measurement": "GI50", "setting": "LOX IMVI", "value": "> 100 µM (inactive)"}, {"measurement": "GI50", "setting": "M19-MEL", "value": "> 100 µM (inactive)"}, {"measurement": "GI50", "setting": "MCF7", "value": "> 100 µM (inactive)"}, {"measurement": "GI50", "setting": "MOLT-4", "value": "> 100 µM (inactive)"}, {"measurement": "GI50", "setting": "Malme-3M", "value": "> 100 µM (inactive)"}, {"measurement": "GI50", "setting": "NCI-H226", "value": "> 100 µM (inactive)"}, {"measurement": "GI50", "setting": "NCI-H23", "value": "> 100 µM (inactive)"}, {"measurement": "GI50", "setting": "NCI-H460", "value": "> 100 µM (inactive)"}, {"measurement": "GI50", "setting": "NCI-H522", "value": "> 93.5 µM (inactive)"}, {"measurement": "GI50", "setting": "NCI/ADR-RES", "value": "> 100 µM (inactive)"}, {"measurement": "GI50", "setting": "OVCAR-3", "value": "> 100 µM (inactive)"}, {"measurement": "GI50", "setting": "OVCAR-4", "value": "> 66.7 µM (inactive)"}, {"measurement": "GI50", "setting": "OVCAR-5", "value": "> 84.5 µM (inactive)"}, {"measurement": "GI50", "setting": "OVCAR-8", "value": "> 100 µM (inactive)"}, {"measurement": "GI50", "setting": "RXF 393", "value": "> 100 µM (inactive)"}, {"measurement": "GI50", "setting": "SF-268", "value": "> 100 µM (inactive)"}, {"measurement": "GI50", "setting": "SF-295", "value": "> 100 µM (inactive)"}, {"measurement": "GI50", "setting": "SF-539", "value": "> 100 µM (inactive)"}, {"measurement": "GI50", "setting": "SK-MEL-28", "value": "> 100 µM (inactive)"}, {"measurement": "GI50", "setting": "SK-MEL-2", "value": "> 100 µM (inactive)"}, {"measurement": "GI50", "setting": "SK-MEL-5", "value": "> 100 µM (inactive)"}, {"measurement": "GI50", "setting": "SK-OV-3", "value": "> 100 µM (inactive)"}, {"measurement": "GI50", "setting": "SN12C", "value": "> 100 µM (inactive)"}, {"measurement": "GI50", "setting": "SNB-19", "value": "> 100 µM (inactive)"}, {"measurement": "GI50", "setting": "SNB-75", "value": "> 100 µM (inactive)"}, {"measurement": "GI50", "setting": "SW-620", "value": "> 100 µM (inactive)"}, {"measurement": "GI50", "setting": "U-251", "value": "> 100 µM (inactive)"}, {"measurement": "GI50", "setting": "UACC-257", "value": "> 100 µM (inactive)"}, {"measurement": "GI50", "setting": "UACC-62", "value": "> 100 µM (inactive)"}, {"measurement": "GI50", "setting": "UO-31", "value": "> 100 µM (inactive)"}, {"measurement": "GI50", "setting": "XF498", "value": "> 100 µM (inactive)"}]}]}
